These results are taken from paper PMC10146186, “Modulation of the Cytotoxic Properties of Pd(II) Complexes Based on Functionalized Carboxamides Featuring Labile Phosphoryl Coordination Sites” (Pharmaceutics, 2023).

A value given as a limit tells only on which side of the number the result lay.

One data set concerns U251 glioblastoma cells. Description: MTT cytotoxicity assay, U251. The data set is classed as cell-based, human. To be noted: 48 h exposure, read-out: IC50 ± SD, U251. How it is done:
(§1) To characterize the antitumor potential of the resulting Pd(II) pincer complexes, their cytotoxicities against a panel of human solid and hematopoietic cancer cell lines, including colorectal carcinoma (HCT116), breast cancer (MCF7), prostate adenocarcinoma (PC3), glioblastoma (U251), ovarian adenocarcinoma (Scov3), chronic myelogenous leukemia (K562) and its resistant subclone (K562/iS9), multiple plasmacytoma (AMO1), and acute lymphoblastic leukemia (H9) cell lineages, were evaluated using the conventional MTT assay. […] For comparison, the inhibitory effects of the compounds explored on noncancerous human embryonic kidney cells HEK293 as well as transformed breast cells HBL100 and their doxorubicin-resistant analogs HBL100/Dox were also investigated under the same conditions.
(§2) The cytotoxic activity of the compounds explored was investigated on human colorectal carcinoma (HCT116), breast cancer (MCF7), prostate adenocarcinoma (PC3), glioblastoma (U251), ovarian adenocarcinoma (Scov3), chronic myelogenous leukemia (K562 and K562/iS9), multiple plasmacytoma (AMO1), and acute lymphoblastic leukemia (H9) cell lines, as well as human embryonic kidney (HEK293) and mammary epithelial (HBL100 and HBL100/Dox) cells used as representatives of pseudonormal cells. All cell lines were obtained from American Type Culture Collection (ATCC). RPMI-1640 and DMEM media were obtained from Gibco. Fetal bovine serum (FBS) was purchased from HyClone. Cells were cultured in RPMI-1640 or DMEM media supplemented with 10% FBS and 50 μg/mL gentamicin in a humidified incubator with 5% CO2 atmosphere. The cell growth inhibitory effects of the compounds were evaluated using the conventional MTT assay (ICN Biomedicals, Eschwege, Germany). Cells were seeded in triplicate at a cell density of 5 × 10^3/well in 96-well plates in 100 µL complete medium and preincubated for 24 h. The tested compounds were initially dissolved in DMSO. Then, the compounds at various concentrations were added to the media. The well plates were incubated for 48 h followed by addition of MTT solution (Sigma, Darmstadt, Germany) (20 μL, 5 mg/mL). The cells were incubated at 37 °C for further 3 h; then the culture medium was removed, and formazan crystals were dissolved in DMSO (70 μL). The absorbance of the resulting solutions was measured on a multi-well plate reader (Multiskan FC, Thermo scientific) at 530 nm to determine the percentage of surviving cells. The reported values of IC50 are the averages of three independent experiments (Table 2 and Table 3). Cisplatin (in the initial form of an infusion concentrate in natural saline solution) from a commercial source was used as the reference.

Another data set deals with MCF7 breast cancer cells. Briefly: MTT cytotoxicity assay, MCF7. As to conditions: MCF7, MTT, 48 h exposure; read-out: IC50 ± SD, MCF7. The data set is classed as cell-based, human. How it is done: as §1, §2
The subject of data set [1] is Scov3 ovarian adenocarcinoma cells. Description: MTT cytotoxicity assay, Scov3. As to conditions: Scov3, compound concentration 80.0 μM, 48 h. Type of data set: cell-based, human. How it is done:
as §1, §2

The test system of data set [2] is HBL100/Dox doxorubicin-resistant mammary epithelial cells. Briefly: MTT cytotoxicity assay, HBL100/Dox. As to conditions: MTT, 48 h exposure, read-out: IC50 ± SD, HBL100/Dox. The data set is classed as cell-based, human. How it is done:
as §1, §2

Data set [3] relates to HBL100 mammary epithelial cells. Description: MTT cytotoxicity assay, HBL100. Type of data set: cell-based, human. As to conditions: 48 h exposure, read-out: IC50 ± SD, HBL100. The method, then:
as §1, §2

Data set [4] concerns HEK293 embryonic kidney cells. Briefly: MTT cytotoxicity assay, HEK293. Type of data set: cell-based, human. As to conditions: HEK293 noncancerous cells, 48 h exposure, read-out: IC50 ± SD, HEK293. How it is done: as §1, §2
Data set [5] has as its system HCT116 colorectal carcinoma cells. Briefly: MTT cytotoxicity assay, HCT116. To be noted: 48 h exposure, read-out: IC50 ± SD, HCT116. Type of data set: cell-based, human. The method, then:
as §1, §2

Data set [6] relates to H9 acute lymphoblastic leukemia cells. Description: MTT cytotoxicity assay, H9. Type of data set: cell-based, human. As to conditions: 48 h exposure, read-out: IC50 ± SD, H9. How it is done:
as §1
as §2, with “Then, the compounds at various concentrations were added to the media. The well plates were incubated for 48 h followed by addition of MTT solution (Sigma, Darmstadt, Germany) (20 μL, 5 mg/mL). The cells were incubated at 37 °C for further 3 h; then the culture medium was removed, and formazan crystals were dissolved in DMSO (70 μL).” left out, “The reported values of IC50 are the averages of three independent experiments (Table 2 and Table 3). Cisplatin (in the initial form of an infusion concentrate in natural saline solution) from a commercial source was used as the reference.” left out

Data set [7] has as its system K562/iS9 resistant chronic myelogenous leukemia cells. Briefly: MTT cytotoxicity assay, K562/iS9. The data set is classed as cell-based, human. To be noted: 48 h exposure, read-out: IC50 ± SD, K562/iS9. The method, then: as §1, §2
In data set [8] the test system is PC3 prostate adenocarcinoma cells. Description: MTT cytotoxicity assay, PC3. Type of data set: cell-based, human. As to conditions: 48 h exposure, read-out: IC50 ± SD, PC3. The method, then:
as §1, §2

For data set [9], the system named is K562 chronic myelogenous leukemia cells. Briefly: MTT cytotoxicity assay, K562. Type of data set: cell-based, human. As to conditions: 48 h exposure, read-out: IC50 ± SD, K562. How it is done: as §1, §2
The nature of data set [10]: UV-vis stability study in DMSO, DMSO–water and DMSO–PBS. The data set is classed as physicochemical. To be noted: neat DMSO, DMSO–water and DMSO–PBS solutions, over 48 h. How it is done:
The observed dependences correlate well with our previous findings on the lability of the phosphoryl sites in palladocycles 2a,b, 3a,b and can be rationalized in terms of their coordination behavior. […] However, the presence of an additional competitive chloride anion makes complex 2b potentially more susceptible to decoordination of the phosphoryl arm. […] At least the N,N-bidentately bound core remained intact in the mentioned media over a period of 48 h.
The NMR spectra were recorded on Bruker Avance 400 and Avance 500 spectrometers, and the chemical shifts (δ) were referenced internally by the residual (^1H) or deuterated (^13C) solvent signals relative to tetramethylsilane or externally to H3PO4 (^31P) or liquid ammonia (^15N). The ^15N chemical shifts were extracted from the ^1H–^15N HMBC spectra. In all cases, the ^13C{^1H} NMR spectra were registered using the JMODECHO mode; the signals for the C nuclei bearing odd and even numbers of protons had opposite polarities. The NMR peak assignments for ligand 1a and complexes 2a, 3a,b were based on the analysis of ^1H–^1H COSY, ^1H–^13C HSQC, and ^1H–^13C HMBC spectra. The results obtained were used to assign the NMR spectra of the other compounds obtained in this study. For the NMR spectra of the representative compounds, see Figures S1–S9 (1a), S11–S22 (2a), and S24–S35 (3b) in the Supporting Information. […]

Data set [11] deals with AMO1 multiple plasmacytoma cells. Description: MTT cytotoxicity assay, AMO1. Type of data set: cell-based, human. To be noted: AMO1, MTT, 48 h exposure; read-out: IC50 ± SD, AMO1. How it is done:
as §1, §2

On to `O=C(c1ccccn1)[N](CP(=O)(c1ccccc1)c1ccccc1)[Pd][Cl]` [complex 3a, [κ^3-O,N,N-(L)Pd(II)Cl]], for which the IC50 in the data set on U251 glioblastoma cells is more than 80 µM; with MCF7 breast cancer cells it was 45 ± 5 µM; in data set [2], more than 80 µM; in data set [3], more than 80 µM; in data set [4], 34 ± 3 µM; in [5], 36 ± 2 µM. The IC50 in data set [6] amounted to 23 ± 1 µM; in data set [7], 40 ± 4.5 µM; in data set [8], 26 ± 6 µM; in data set [9], 36 ± 4 µM; in [11], 32 ± 2 µM. Besides, in data set [1], the “percentage of live cells” value is 30% ^5. The “stability by UV-vis spectroscopy” value in data set [10] was “high stability”.
